Measured values taken from US20240116877A1, “KIT KINASE INHIBITORS AND METHODS OF USE THEREOF” (Deciphera Pharmaceuticals, LLC, priority 2021, published 2024).
Read-outs that look alike come from different tables or passages of the source.

How the values were obtained:
[1] = tested on: Ba/F3 KIT mutant cells; test: Ba/F3 mutant KIT Cell Proliferation Assays (resazurin); assay type: cell-based; conditions: Mus musculus, BaF3
Outline: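 IC50 values come from resazurin fluorescence (ex 540, em 600) after 5 h dye exposure, added as a 440 μM solution. Cells were IL-3-independent Ba/F3 expressing mutant KIT from a lentiviral vector, puromycin-selected.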

[2] = biological target: c-KIT kinase (uKIT) (Homo sapiens (Human), UniProt P10721); test: Biochemical Assay for uKIT (coupled pyruvate kinase/lactate dehydrogenase assay); conditions: Inhibition of biochemical activity of uKIT kinase; 1 mM ATP
Outline: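 Continuous coupled PK/LDH assay following NADH oxidation at 340 nm for 6 h at 30° C, with 16 nM or 4.36 nM KIT (two constructs), 0.7 mg/mL PE4Y, 1 mM ATP, pH 7.5. Rates from the 2-3 h window converted to percent inhibition versus controls; IC50 fitted.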

[3] = tested on: GIST 430 cells; test: GIST 430 Cell Proliferation Assay (resazurin); assay type: cell-based; conditions: Homo sapiens; GIST430 cell proliferation
Outline: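 Five thousand cells per well were exposed to serially diluted compound in complete growth medium for 115 h at 37 degrees Celsius, 5% CO2. Resazurin was then added for a further 5 h, fluorescence read at 540 nm excitation/600 nm emission, and IC50 values calculated.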

[4] = Ba/F3 KIT AYdup-V654A mutant cell proliferation, read-out: AYdup-V654A IC50
[5] = Ba/F3 KIT exon11del-V654A mutant cell proliferation, read-out: exon11del-V654A IC50
[6] = Ba/F3 KIT exon11del-Y823D mutant cell proliferation, read-out: exon11del-Y823D IC50
[7] = Ba/F3 KIT AYdup mutant cell proliferation, read-out: AYdup IC50
[8] = Ba/F3 KIT AYdup-D816G mutant cell proliferation, read-out: AYdup-D816G IC50

Chain of c-KIT kinase (uKIT) (P10721 other isoform, or with tags, fused parts or gaps): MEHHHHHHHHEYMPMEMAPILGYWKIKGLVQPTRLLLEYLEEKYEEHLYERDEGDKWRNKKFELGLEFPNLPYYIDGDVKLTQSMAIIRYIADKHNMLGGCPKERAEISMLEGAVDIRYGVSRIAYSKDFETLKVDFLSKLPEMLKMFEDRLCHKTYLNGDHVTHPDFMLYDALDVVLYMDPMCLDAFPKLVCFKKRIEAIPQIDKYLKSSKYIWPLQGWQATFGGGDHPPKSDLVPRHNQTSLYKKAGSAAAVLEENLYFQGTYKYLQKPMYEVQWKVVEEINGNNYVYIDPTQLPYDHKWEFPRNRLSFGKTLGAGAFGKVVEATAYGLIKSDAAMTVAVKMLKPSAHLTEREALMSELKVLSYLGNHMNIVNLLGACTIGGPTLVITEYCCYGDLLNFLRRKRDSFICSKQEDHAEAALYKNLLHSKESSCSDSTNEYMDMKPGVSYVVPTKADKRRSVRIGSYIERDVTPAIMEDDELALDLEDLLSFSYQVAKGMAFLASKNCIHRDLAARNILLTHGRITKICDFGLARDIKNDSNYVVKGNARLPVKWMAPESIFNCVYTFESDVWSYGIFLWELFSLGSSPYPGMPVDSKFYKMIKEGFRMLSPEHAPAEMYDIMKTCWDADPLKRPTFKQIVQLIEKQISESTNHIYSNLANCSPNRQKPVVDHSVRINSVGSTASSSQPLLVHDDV

SMILES	IC50 [1, 4] [nM]	IC50 [1, 5] [nM]	IC50 [1, 6] [nM]	IC50 [2] [nM]	IC50 [3] [nM]	IC50 [1, 7] [nM]	IC50 [1, 8] [nM]
COCCOc1cc(F)c2c(Nc3ccc(NC(=O)NC(=O)CC4(C(F)(F)F)COC4)cc3)ncnc2c1 [Example 137]	10 to 100	10 to 100	> 1000	10 to 100	10 to 100		
COCCOc1cc(F)c2c(Nc3ccc(NC(=O)C4(C(=O)NCC(C)C)CC4)cc3)ncnc2c1 [Example 71]	100 to 1000	10 to 100	> 1000	10 to 100	100 to 1000		
COCCOc1cc(F)c2c(Nc3ccc(NC(=O)CC(=O)NCCN4CCOCC4)cc3)ncnc2c1 [Example 84]		100 to 1000		> 1000	> 1000		
COCCOc1cc(F)c2c(Nc3ccc(NC(=O)NCCC(C)(C)F)c(F)c3)ncnc2c1 [Example 64]	100 to 1000	10 to 100	100 to 1000	10 to 100	10 to 100		
COCCOc1cc(F)c2c(Nc3ccc(NC(=O)CC(=O)NC(C)C)cc3)ncnc2c1 [Example 96]	10 to 100	10 to 100	> 1000	10 to 100	10 to 100		
COCCOc1cc(F)c2c(Nc3ccc(NC(=O)CC(=O)N4CCOCC4(C)C)cc3)ncnc2c1 [Example 154]	100 to 1000	100 to 1000	100 to 1000	10 to 100	10 to 100		
COCCOc1cc(F)c2c(Nc3ccc(NC(=O)CC(=O)NC4CCCC4)cc3)ncnc2c1 [Example 92]	10 to 100	≤ 10	10 to 100	≤ 10	≤ 10	≤ 10	10 to 100
COCCOc1cc(F)c2c(Nc3ccc(NC(=O)CC(=O)N4CC[C@H](C)C4)cc3)ncnc2c1 [Example 191]	100 to 1000	100 to 1000	100 to 1000	10 to 100	100 to 1000		
COCCOc1cc(F)c2c(Nc3ccc(NC(=O)CC(=O)NC(C)(C)C4CC4)cc3)ncnc2c1 [Example 131]	10 to 100	≤ 10	10 to 100	10 to 100	10 to 100	≤ 10	10 to 100
COCCOc1cc(F)c2c(Nc3ccc(NC(=O)CC(=O)NC4CCC4)cc3)ncnc2c1 [Example 95]	10 to 100	≤ 10	10 to 100	≤ 10	≤ 10	≤ 10	10 to 100
COCCOc1cc(F)c2c(Nc3ccc(NC(=O)CC(=O)NC4CC(C)(C)C4)cc3)ncnc2c1 [Example 112]	10 to 100	≤ 10	10 to 100	10 to 100	≤ 10	≤ 10	10 to 100
COCCOc1cc(F)c2c(Nc3ccc(NC(=O)CC4CCC(C)(C)CC4)cc3)ncnc2c1 [Example 69]	10 to 100	10 to 100	10 to 100	≤ 10	≤ 10	10 to 100	≤ 10
COCCOc1cc(F)c2c(Nc3ccc(NC(=O)C4(C(=O)N(C)CC(C)(C)C)CC4)cc3)ncnc2c1 [Example 50]	100 to 1000	> 1000	> 1000	100 to 1000	100 to 1000	100 to 1000	> 1000
COCCOc1cc(F)c2c(Nc3ccc(NC(=O)CC(=O)N[C@H]4C[C@H](OC)C4)cc3)ncnc2c1 [Example 117]	10 to 100	10 to 100	> 1000	100 to 1000	10 to 100		
COCCOc1cc(F)c2c(Nc3ccc(NC(=O)N4CCC(C(C)(C)C)C4)cc3)ncnc2c1 (stereo not shown) [Example 122]	100 to 1000	10 to 100	> 1000	10 to 100	100 to 1000		
COCCOc1cc(F)c2c(Nc3ccc(NC(=O)CC(=O)NCC(C)(C)COC)cc3)ncnc2c1 [Example 86]	10 to 100	10 to 100	> 1000	10 to 100	10 to 100		
COCCOc1cc(F)c2c(Nc3ccc(NC(=O)CC(=O)NC4CC(F)(F)C4)cc3)ncnc2c1 [Example 113]	10 to 100	10 to 100	100 to 1000	10 to 100	10 to 100		
COCCOc1cc(F)c2c(Nc3ccc(NC(=O)CC(=O)NC(C)(C)C)cc3)ncnc2c1 [Example 124]	10 to 100	10 to 100	100 to 1000	10 to 100	10 to 100		
